Laboratory results taken from ChEMBL document CHEMBL1201862, “PubChem BioAssay data set” (2004).
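The compound was tested at five concentrations on cells cultured in 96-well plates, with a 48-hour exposure period. At the GI50, growth is halved.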 Activity calls are given as the source filed them. Rule as the data show it: active = GI50 up to about 1.1 µM and inactive = higher.

Legend:
Assay in all cases: NCI-60 cell line screen, 48 h
786-0 = tested on: 786-0
A498 = tested on: A498
ACHN = tested on: ACHN
CAKI-1 = tested on: CAKI-1
EKVX = tested on: EKVX
IGROV-1 = tested on: IGROV-1
KM12 = tested on: KM12
LOX IMVI = tested on: LOX IMVI
MOLT-4 = tested on: MOLT-4
NCI-H226 = tested on: NCI-H226
NCI-H460 = tested on: NCI-H460
NCI-H522 = tested on: NCI-H522
OVCAR-3 = tested on: OVCAR-3
OVCAR-8 = tested on: OVCAR-8
SF-295 = tested on: SF-295
SF-539 = tested on: SF-539
SK-MEL-5 = tested on: SK-MEL-5
SR = tested on: SR
SW-620 = tested on: SW-620
U-251 = tested on: U-251

Compound | GI50 (786-0) | GI50 (A498) | GI50 (ACHN) | GI50 (CAKI-1) | GI50 (EKVX) | GI50 (IGROV-1) | GI50 (KM12) | GI50 (LOX IMVI) | GI50 (MOLT-4) | GI50 (NCI-H226) | GI50 (NCI-H460) | GI50 (NCI-H522) | GI50 (OVCAR-3) | GI50 (OVCAR-8) | GI50 (SF-295) | GI50 (SF-539) | GI50 (SK-MEL-5) | GI50 (SR) | GI50 (SW-620) | GI50 (U-251)
O=C(C/C=C/c1ccccc1)c1ccccc1 | 21.6 µM (inactive) | 15.7 µM (inactive) | 16.6 µM (inactive) | 17 µM (inactive) | 35.5 µM (inactive) | 23.5 µM (inactive) | 11.1 µM (inactive) | 12 µM (inactive) | 20.8 µM (inactive) | 29.5 µM (inactive) | 19.9 µM (inactive) | 16.9 µM (inactive) | 41.6 µM (inactive) | 15.7 µM (inactive) | 44.4 µM (inactive) | 25 µM (inactive) | 19.5 µM (inactive) | 12.4 µM (inactive) | 31.2 µM (inactive) | 14.6 µM (inactive)
COC(=O)NNc1c([N+](=O)[O-])cnn(-c2ccccc2)c1=O | 3.32 µM (inactive) | 27.3 µM (inactive) | 4.44 µM (inactive) | 3.98 µM (inactive) | 3.82 µM (inactive) | 17.9 µM (inactive) | 5.19 µM (inactive) | 1.66 µM (inactive) | 0.815 µM (active) | 4.19 µM (inactive) | 3.96 µM (inactive) | 0.995 µM (active) | 1.97 µM (inactive) | 1.78 µM (inactive) | 3.46 µM (inactive) | 3.29 µM (inactive) | 4.07 µM (inactive) | 0.497 µM (active) | 1.07 µM (active) | 2.62 µM (inactive)
COc1cc(OC)c(OC)cc1/C=C\c1ccnc2ccccc12 | 0.687 µM (active) | 0.522 µM (active) | 1.29 µM (inactive) | 1.05 µM (active) | 2.17 µM (inactive) | 0.897 µM (active) | 0.675 µM (active) | 0.61 µM (active) | 0.575 µM (active) | 0.977 µM (active) | 0.555 µM (active) | 0.333 µM (active) | 0.387 µM (active) | 1.25 µM (inactive) | 0.48 µM (active) | 0.394 µM (active) | 0.414 µM (active) | 0.933 µM (active) | 0.679 µM (active) | 0.628 µM (active)
COc1ccc(/C=C2/SC(c3c(O)ccc4ccccc34)N(NC(=O)CCCCCCCCC(=O)NN3C(=O)/C(=C\c4ccc(OC)c(OC)c4)SC3c3c(O)ccc4ccccc34)C2=O)cc1OC (stereo not given) | 0.519 µM (active) | 7.6 µM (inactive) | 0.755 µM (active) | 1.22 µM (inactive) | 2.12 µM (inactive) | 0.481 µM (active) | 5.16 µM (inactive) | 0.394 µM (active) | 0.176 µM (active) | 0.855 µM (active) | 0.649 µM (active) | 0.472 µM (active) | 0.33 µM (active) | 0.553 µM (active) | 1.39 µM (inactive) | 1.01 µM (active) | 0.318 µM (active) | 0.0962 µM (active) | 1.53 µM (inactive) | 1.26 µM (inactive)
Cn1nc2ccc3nccc(N(CCO)CCO)c3c2n1 | > 100 µM (inactive) | > 100 µM (inactive) | > 100 µM (inactive) | > 100 µM (inactive) | > 100 µM (inactive) | > 100 µM (inactive) | > 100 µM (inactive) | > 100 µM (inactive) | > 100 µM (inactive) | > 100 µM (inactive) | > 100 µM (inactive) | > 100 µM (inactive) | > 100 µM (inactive) | > 100 µM (inactive) | > 100 µM (inactive) | > 100 µM (inactive) | > 100 µM (inactive) | > 100 µM (inactive) | > 100 µM (inactive) | > 100 µM (inactive)
O=C1/C(=c2\c3ccccc3n3c(=O)c4ccccc4nc23)Nc2ccccc21 [CANDIDINE] | 58.7 µM (inactive) | > 100 µM (inactive) | > 100 µM (inactive) | > 100 µM (inactive) | > 88.9 µM (inactive) | > 100 µM (inactive) | > 59.7 µM (inactive) | > 72.8 µM (inactive) | > 31.6 µM (inactive) | > 100 µM (inactive) | 43.5 µM (inactive) | > 100 µM (inactive) | 45.9 µM (inactive) | > 91.8 µM (inactive) | > 78.3 µM (inactive) | > 63 µM (inactive) | > 53.8 µM (inactive) | > 89.5 µM (inactive) | > 100 µM (inactive) | > 93.8 µM (inactive)
O=C(CCN1CCN2c3ccccc3CCC2C1)c1ccc(F)cc1 (stereo not given) | 18.9 µM (inactive) | > 100 µM (inactive) | 19 µM (inactive) | 23.3 µM (inactive) | 27.5 µM (inactive) | 22.4 µM (inactive) | 41.1 µM (inactive) | 30.1 µM (inactive) | 57.3 µM (inactive) | 34.8 µM (inactive) | 47.1 µM (inactive) | 15.4 µM (inactive) | 32.1 µM (inactive) | 41.5 µM (inactive) | > 100 µM (inactive) | 20.8 µM (inactive) | 22.5 µM (inactive) | 28.4 µM (inactive) | 10.3 µM (inactive) | 27.8 µM (inactive)
C/C(=N\NC(=O)c1ccncc1)c1ccc2ccccc2c1O | 0.548 µM (active) | 11.2 µM (inactive) | 0.993 µM (active) | 2.25 µM (inactive) | 0.832 µM (active) | 2.29 µM (inactive) | 2.31 µM (inactive) | 1.04 µM (active) | 0.513 µM (active) | 1.77 µM (inactive) | 0.356 µM (active) | 0.869 µM (active) | 0.29 µM (active) | 2.18 µM (inactive) | 1.77 µM (inactive) | 1.46 µM (inactive) | 1.67 µM (inactive) | 0.303 µM (active) | 3.12 µM (inactive) | 2.69 µM (inactive)
C=CCSc1nnc2cc(CN3CCCC3)c(-c3ccc(Cl)cc3)nn12 | 17.1 µM (inactive) | 15.9 µM (inactive) | 15.7 µM (inactive) | 26.5 µM (inactive) | 19 µM (inactive) | 20.7 µM (inactive) | 24.8 µM (inactive) | 20.4 µM (inactive) | 26 µM (inactive) | 11.2 µM (inactive) | 17.9 µM (inactive) | 18.9 µM (inactive) | 17.1 µM (inactive) | 23.3 µM (inactive) | 22.2 µM (inactive) | 18.6 µM (inactive) | 15.5 µM (inactive) | 32.6 µM (inactive) | 26.5 µM (inactive) | 17.5 µM (inactive)
C=C(Br)C(C)(Cl)CCC(Br)C(C)(C)Cl (stereo not given) | 20.6 µM (inactive) | > 100 µM (inactive) | 29.6 µM (inactive) | > 100 µM (inactive) | > 100 µM (inactive) | 77.3 µM (inactive) | 34.2 µM (inactive) | 17.6 µM (inactive) | 32.3 µM (inactive) | 25.6 µM (inactive) | > 100 µM (inactive) | 40.5 µM (inactive) | 20 µM (inactive) | 64.1 µM (inactive) | 34.8 µM (inactive) | 74.8 µM (inactive) | 34.2 µM (inactive) | > 100 µM (inactive) | 36.1 µM (inactive) | > 100 µM (inactive)
[O-][S+]1c2ccccc2N=C(c2ccc(Cl)cc2)CC1c1cccs1 (stereo not given) | 15 µM (inactive) | 97.1 µM (inactive) | 28.2 µM (inactive) | 21.4 µM (inactive) | 35.4 µM (inactive) | 14.8 µM (inactive) | 14.7 µM (inactive) | 12.6 µM (inactive) | 26 µM (inactive) | 90.4 µM (inactive) | 36.8 µM (inactive) | 27.4 µM (inactive) | 1.68 µM (inactive) | 17.8 µM (inactive) | 16.6 µM (inactive) | 16.7 µM (inactive) | 19 µM (inactive) | 7.01 µM (inactive) | 14.4 µM (inactive) | 15.5 µM (inactive)
COc1cc(-c2cc(-c3ccccc3)nc(-c3c(OC)ccc4c(C)cc(=O)oc34)c2)cc(OC)c1OC | > 100 µM (inactive) | > 100 µM (inactive) | > 100 µM (inactive) | > 100 µM (inactive) | > 100 µM (inactive) | > 100 µM (inactive) | > 100 µM (inactive) | > 100 µM (inactive) | > 100 µM (inactive) | > 100 µM (inactive) | > 100 µM (inactive) | > 100 µM (inactive) | > 100 µM (inactive) | > 100 µM (inactive) | > 100 µM (inactive) | > 100 µM (inactive) | > 100 µM (inactive) | > 100 µM (inactive) | > 100 µM (inactive) | > 100 µM (inactive)
CC1=C(C(=O)Nc2ccc(Cl)c(Cl)c2)C(c2ccc([N+](=O)[O-])cc2)C(C(=O)Nc2ccc(Cl)c(Cl)c2)=C(C)N1 | 2.81 µM (inactive) | 3.32 µM (inactive) | 3.09 µM (inactive) | 2.54 µM (inactive) | 3.13 µM (inactive) | 3.2 µM (inactive) | 1.82 µM (inactive) | 2.06 µM (inactive) | 0.223 µM (active) | 3.88 µM (inactive) | 2.41 µM (inactive) | 2.55 µM (inactive) | 1.66 µM (inactive) | 2.13 µM (inactive) | 2.7 µM (inactive) | 3.13 µM (inactive) | 1.67 µM (inactive) | 0.179 µM (active) | 3.05 µM (inactive) | 2.49 µM (inactive)
O=c1c2c3c(sc2nc2n1N=C(c1ccc([N+](=O)[O-])cc1)CS2)CCCC3 | > 100 µM (inactive) | > 100 µM (inactive) | > 100 µM (inactive) | > 100 µM (inactive) | > 100 µM (inactive) | > 100 µM (inactive) | > 100 µM (inactive) | > 100 µM (inactive) | > 100 µM (inactive) | > 100 µM (inactive) | > 100 µM (inactive) | > 100 µM (inactive) | > 100 µM (inactive) | > 100 µM (inactive) | > 100 µM (inactive) | > 100 µM (inactive) | > 100 µM (inactive) | > 100 µM (inactive) | > 100 µM (inactive) | > 100 µM (inactive)
